Data on 1 molecule can be found in ChEMBL document CHEMBL2034861, “Tyrosyl-DNA phosphodiesterase 1 inhibitor from an anamorphic fungus” (J Nat Prod, 2012).

Molecules are shown by their SMILES.

In data set [1] the target is Tyrosyl-DNA phosphodiesterase 1 (Homo sapiens, UniProt Q9NUW8). As to the kind of experiment: Inhibition of human Tdp1 using 3'-phosphate-(4-methylumbelliferone)-thymidine as substrate after 180 mins by spectrophotometry.
Data set [2] deals with HeLa. Briefly: Antiproliferative activity against human HeLa cells after 48 hrs by WST-8 assay. The class given is functional, cell-based.
Data set [3] deals with NCI-H2052. As to the kind of experiment: Antiproliferative activity against human NCI-H2052 cells after 48 hrs by WST-8 assay. It is filed as functional, cell-based. Conditions: NCI-H2052, 48 h.
In data set [4] the test system is HT-29. As to the kind of experiment: Antiproliferative activity against human HT-29 cells after 48 hrs by WST-8 assay. It is filed as functional, cell-based. Conditions: HT-29, 48 h.
Data set [5] in a line: Antiproliferative activity against human NAMALWA cells after 48 hrs by WST-8 assay. Conditions: NAMALVA. The class given is functional, cell-based.
Data set [6] concerns HT-29. Briefly: Antitumor activity against human HT-29 cells xenografted in nude mouse KSN assessed as reduction in tumor volume at 2 mg/kg, ip qd administered every other day from day 7 post-tumor injection for 19 days measured on day 21 relative to vehicle treated control. The class given is functional. Conditions: route intraperitoneal.
Data set [7] has as its system Mus musculus. Briefly: Toxicity in nude mouse KSN assessed as weight loss at 2 mg/kg, ip qd administered every other day for 19 days measured on day 21 relative to vehicle treated control. Further details: dose 2 mg/kg, route intraperitoneal. The class given is organism-based. Conditions: in vivo, 456 h.
The test system of data set [8] is Mus musculus. Briefly: Toxicity in nude mouse KSN assessed as adverse effects at 2 mg/kg, ip qd administered every other day for 19 days measured on day 21 relative to vehicle treated control. The class given is organism-based. Further details: dose 2 mg/kg, route intraperitoneal. Conditions: in vivo, 456 h.

Chain of Tyrosyl-DNA phosphodiesterase 1 (Q9NUW8 whole entry): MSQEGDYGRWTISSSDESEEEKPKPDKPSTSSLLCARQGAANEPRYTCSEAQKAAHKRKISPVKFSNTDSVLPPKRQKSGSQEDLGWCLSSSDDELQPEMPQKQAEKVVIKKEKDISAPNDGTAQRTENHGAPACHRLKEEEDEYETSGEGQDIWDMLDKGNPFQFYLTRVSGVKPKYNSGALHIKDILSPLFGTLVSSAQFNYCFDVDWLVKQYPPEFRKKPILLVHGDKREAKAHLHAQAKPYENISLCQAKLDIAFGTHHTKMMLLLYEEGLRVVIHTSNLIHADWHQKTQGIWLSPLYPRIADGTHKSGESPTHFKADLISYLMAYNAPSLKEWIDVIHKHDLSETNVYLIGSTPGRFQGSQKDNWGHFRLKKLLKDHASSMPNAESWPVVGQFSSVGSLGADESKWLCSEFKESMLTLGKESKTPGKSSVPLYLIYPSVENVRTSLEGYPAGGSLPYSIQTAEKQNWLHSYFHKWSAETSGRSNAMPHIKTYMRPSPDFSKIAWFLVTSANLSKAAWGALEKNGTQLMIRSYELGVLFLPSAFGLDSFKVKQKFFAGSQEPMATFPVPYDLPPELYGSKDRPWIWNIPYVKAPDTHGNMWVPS

Regarding `CCCCC(C)C1=CC(=O)C2=C(O[C@]3(C)CC[C@H]4O[C@@H]([C@@](C)(O)C(=O)O)CC[C@]4(C)[C@H]3C2)C1=O` (stereo partly drawn), the IC50 is 18 µM in data set [1]; 9.2 µM in data set [2]; 13 µM in data set [3]; 4 µM in data set [4]; 3.5 µM in data set [5]. Besides, in data set [6], the T/C was 0.51. The Activity result in data set [7] and in data set [8] was “Non-toxic” throughout.
